Experimental data from PubChem BioAssay (NCI).
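Grown in 96-well plates, cells were treated for 48 hours with each compound at five concentrations. Insufficient inhibition: endpoint recorded as highest concentration tested. TGI: concentration producing complete growth inhibition.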

How the values were obtained:
Experiment in all cases: NCI-60 cell line screen, 48 h
[1] = tested on: OVCAR-5 ovarian
[2] = tested on: HCT-15 colon
[3] = tested on: NCI-H522 lung
[4] = tested on: MCF7 breast
[5] = tested on: SK-MEL-28 melanoma
[6] = tested on: IGROV1 ovarian
[7] = tested on: SNB-75 CNS
[8] = tested on: HOP-92 NSCLC
[9] = tested on: OVCAR-3 ovarian
[10] = tested on: SK-OV-3 ovarian
[11] = tested on: 786-0 renal
[12] = tested on: CCRF-CEM leukemia
[13] = tested on: MALME-3M melanoma
[14] = tested on: SF-295 CNS
[15] = tested on: LOX IMVI melanoma
[16] = tested on: HL-60(TB) leukemia
[17] = tested on: MDA-MB-231 breast
[18] = tested on: SF-268 CNS
[19] = tested on: MDA-MB-435
[20] = tested on: NCI-H226 lung
[21] = tested on: MDA-N
[22] = tested on: SK-MEL-5 melanoma
[23] = tested on: A498 renal
[24] = tested on: NCI-H23 lung
[25] = tested on: EKVX NSCLC
[26] = tested on: KM12 colon
[27] = tested on: BT-549 breast
[28] = tested on: NCI-H460 lung
[29] = tested on: NCI/ADR-RES ovarian
[30] = tested on: MOLT-4 leukemia
[31] = tested on: RXF 393 renal
[32] = tested on: OVCAR-4 ovarian
[33] = tested on: CAKI-1 renal
[34] = tested on: K-562 leukemia
[35] = tested on: HCC-2998 colon
[36] = tested on: TK-10 renal
[37] = tested on: COLO 205 colon
[38] = tested on: U251 CNS
[39] = tested on: SNB-19 CNS
[40] = tested on: HS 578T breast
[41] = tested on: UO-31 renal
[42] = tested on: HOP-62 NSCLC
[43] = tested on: HCT-116 colon
[44] = tested on: DU-145 prostate
[45] = tested on: OVCAR-8 ovarian
[46] = tested on: UACC-257 melanoma
[47] = tested on: T-47D breast
[48] = tested on: SW-620 colon
[49] = tested on: M14 melanoma
[50] = tested on: SK-MEL-2 melanoma
[51] = tested on: RPMI-8226 leukemia
[52] = tested on: PC-3 prostate
[53] = tested on: A549 NSCLC
[54] = tested on: SR leukemia
[55] = tested on: ACHN renal
[56] = tested on: SN12C renal
[57] = tested on: UACC-62 melanoma
[58] = tested on: SF-539 CNS
[59] = tested on: HT29 colon

**Q.** How did the TGI [1] turn out when `O=C(O)c1ccc(C(=O)Nc2cccc3ccccc23)c(C(=O)O)c1` was run?
**A.** > 100 µM

**Q.** And the TGI [2]?
**A.** > 100 µM

**Q.** What about the TGI [3] of the same compound?
**A.** > 100 µM

**Q.** And the TGI [4]?
**A.** > 100 µM

**Q.** And the TGI [5]?
**A.** > 100 µM

**Q.** What about the TGI [6] of the same compound?
**A.** > 100 µM

**Q.** And the TGI [7]?
**A.** > 100 µM

**Q.** And the TGI [8]?
**A.** > 100 µM

**Q.** What about the TGI [9] of the same compound?
**A.** > 100 µM

**Q.** What about the TGI [10] of the same compound?
**A.** > 100 µM

**Q.** And the TGI [11]?
**A.** > 100 µM

**Q.** What about the TGI [12] of the same compound?
**A.** > 100 µM

**Q.** And the TGI [13]?
**A.** > 100 µM

**Q.** What about the TGI [14] of the same compound?
**A.** > 100 µM

**Q.** And the TGI [15]?
**A.** > 100 µM

**Q.** And the TGI [16]?
**A.** > 100 µM

**Q.** And the TGI [17]?
**A.** > 100 µM

**Q.** What about the TGI [18] of the same compound?
**A.** > 100 µM

**Q.** What about the TGI [19] of the same compound?
**A.** > 100 µM

**Q.** And the TGI [20]?
**A.** > 100 µM

**Q.** What about the TGI [21] of the same compound?
**A.** > 100 µM

**Q.** And the TGI [22]?
**A.** > 100 µM

**Q.** And the TGI [23]?
**A.** > 100 µM

**Q.** What about the TGI [24] of the same compound?
**A.** > 100 µM

**Q.** What about the TGI [25] of the same compound?
**A.** > 100 µM

**Q.** And the TGI [26]?
**A.** > 100 µM

**Q.** And the TGI [27]?
**A.** > 100 µM

**Q.** And the TGI [28]?
**A.** > 100 µM

**Q.** What about the TGI [29] of the same compound?
**A.** > 100 µM

**Q.** And the TGI [30]?
**A.** > 100 µM

**Q.** What about the TGI [31] of the same compound?
**A.** > 100 µM

**Q.** And the TGI [32]?
**A.** > 100 µM

**Q.** What about the TGI [33] of the same compound?
**A.** > 100 µM

**Q.** And the TGI [34]?
**A.** > 100 µM

**Q.** What about the TGI [35] of the same compound?
**A.** > 100 µM

**Q.** And the TGI [36]?
**A.** > 100 µM

**Q.** What about the TGI [37] of the same compound?
**A.** > 100 µM

**Q.** And the TGI [38]?
**A.** > 100 µM

**Q.** What about the TGI [39] of the same compound?
**A.** > 100 µM

**Q.** And the TGI [40]?
**A.** > 100 µM

**Q.** And the TGI [41]?
**A.** > 100 µM

**Q.** What about the TGI [42] of the same compound?
**A.** > 100 µM

**Q.** What about the TGI [43] of the same compound?
**A.** > 100 µM

**Q.** And the TGI [44]?
**A.** > 100 µM

**Q.** What about the TGI [45] of the same compound?
**A.** > 100 µM

**Q.** And the TGI [46]?
**A.** > 100 µM

**Q.** And the TGI [47]?
**A.** > 100 µM

**Q.** And the TGI [48]?
**A.** > 100 µM

**Q.** What about the TGI [49] of the same compound?
**A.** > 100 µM

**Q.** What about the TGI [50] of the same compound?
**A.** > 100 µM

**Q.** What about the TGI [51] of the same compound?
**A.** > 100 µM

**Q.** And the TGI [52]?
**A.** > 100 µM

**Q.** And the TGI [53]?
**A.** > 100 µM

**Q.** And the TGI [54]?
**A.** > 100 µM

**Q.** What about the TGI [55] of the same compound?
**A.** > 100 µM

**Q.** And the TGI [56]?
**A.** > 100 µM

**Q.** And the TGI [57]?
**A.** > 100 µM

**Q.** What about the TGI [58] of the same compound?
**A.** > 100 µM

**Q.** And the TGI [59]?
**A.** > 100 µM

**Q.** How did the TGI [1] turn out when `COC(=O)c1oc([N+](=O)[O-])c(Cl)c1Cl` was run?
**A.** 14.8 µM

**Q.** What about the TGI [2] of the same compound?
**A.** 18.2 µM

**Q.** What about the TGI [3] of the same compound?
**A.** 3.33 µM

**Q.** And the TGI [4]?
**A.** 6.27 µM

**Q.** What about the TGI [5] of the same compound?
**A.** 15.8 µM

**Q.** What about the TGI [6] of the same compound?
**A.** 14.8 µM

**Q.** And the TGI [7]?
**A.** 20.8 µM

**Q.** What about the TGI [8] of the same compound?
**A.** 39.3 µM

**Q.** What about the TGI [9] of the same compound?
**A.** 11.4 µM

**Q.** And the TGI [10]?
**A.** 33.2 µM

**Q.** And the TGI [11]?
**A.** 16.4 µM

**Q.** And the TGI [12]?
**A.** 7.35 µM

**Q.** What about the TGI [13] of the same compound?
**A.** 14.3 µM

**Q.** And the TGI [14]?
**A.** 24.7 µM

**Q.** What about the TGI [15] of the same compound?
**A.** 13.7 µM

**Q.** What about the TGI [16] of the same compound?
**A.** 3.24 µM

**Q.** And the TGI [17]?
**A.** 14 µM

**Q.** And the TGI [18]?
**A.** 17.5 µM

**Q.** What about the TGI [19] of the same compound?
**A.** 14.6 µM

**Q.** What about the TGI [20] of the same compound?
**A.** 42.9 µM

**Q.** What about the TGI [21] of the same compound?
**A.** 14.9 µM

**Q.** What about the TGI [22] of the same compound?
**A.** 17.7 µM

**Q.** What about the TGI [23] of the same compound?
**A.** 23 µM

**Q.** What about the TGI [24] of the same compound?
**A.** 17.4 µM

**Q.** And the TGI [25]?
**A.** 36.8 µM

**Q.** What about the TGI [26] of the same compound?
**A.** 14.5 µM

**Q.** What about the TGI [27] of the same compound?
**A.** 14.8 µM

**Q.** And the TGI [28]?
**A.** 34.6 µM

**Q.** What about the TGI [29] of the same compound?
**A.** 36.5 µM

**Q.** What about the TGI [30] of the same compound?
**A.** 4.93 µM

**Q.** What about the TGI [31] of the same compound?
**A.** 28 µM

**Q.** And the TGI [32]?
**A.** 17.4 µM

**Q.** And the TGI [33]?
**A.** 7.4 µM

**Q.** What about the TGI [34] of the same compound?
**A.** 6.48 µM

**Q.** What about the TGI [35] of the same compound?
**A.** 35 µM

**Q.** And the TGI [36]?
**A.** 14 µM

**Q.** And the TGI [37]?
**A.** 8.61 µM

**Q.** What about the TGI [38] of the same compound?
**A.** 15.5 µM

**Q.** And the TGI [39]?
**A.** 35.4 µM

**Q.** And the TGI [40]?
**A.** 29.3 µM

**Q.** What about the TGI [41] of the same compound?
**A.** 14.5 µM

**Q.** And the TGI [42]?
**A.** 17 µM

**Q.** What about the TGI [43] of the same compound?
**A.** 12.9 µM

**Q.** And the TGI [44]?
**A.** 32.5 µM

**Q.** What about the TGI [45] of the same compound?
**A.** 30.4 µM

**Q.** What about the TGI [46] of the same compound?
**A.** 15.2 µM

**Q.** What about the TGI [47] of the same compound?
**A.** 13.1 µM

**Q.** What about the TGI [48] of the same compound?
**A.** 10 µM

**Q.** What about the TGI [49] of the same compound?
**A.** 13.8 µM

**Q.** What about the TGI [50] of the same compound?
**A.** 31.6 µM

**Q.** And the TGI [51]?
**A.** 15.8 µM

**Q.** What about the TGI [52] of the same compound?
**A.** 15.1 µM

**Q.** And the TGI [53]?
**A.** 37.7 µM

**Q.** And the TGI [54]?
**A.** 4.89 µM

**Q.** What about the TGI [55] of the same compound?
**A.** 15.6 µM

**Q.** What about the TGI [56] of the same compound?
**A.** 14.2 µM

**Q.** What about the TGI [57] of the same compound?
**A.** 15.7 µM

**Q.** What about the TGI [58] of the same compound?
**A.** 14.4 µM

**Q.** What about the TGI [59] of the same compound?
**A.** 41.4 µM
